Reference: ChEMBL document CHEMBL1201862, “PubChem BioAssay data set” (2004)
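How tested: cells in 96-well plates exposed to compound for 48 hours at five concentrations. GI50: concentration for 50% inhibition of growth.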 Activity calls are given as the source filed them. No stated cut-off is given here; in the data, active = GI50 up to about 1.1 µM and inactive = higher.

How the values were obtained:
Experiment in all cases: growth of human tumour cells (NCI), 48 h
[1] = system: SK-MEL-28
[2] = system: TK-10
[3] = system: SN12C
[4] = system: SK-MEL-2
[5] = system: COLO 205
[6] = system: HL-60
[7] = system: SW-620
[8] = system: SF-295
[9] = system: SF-268
[10] = system: MCF7
[11] = system: RXF 393
[12] = system: 786-0
[13] = system: SNB-19
[14] = system: A498
[15] = system: MDA-N
[16] = system: RPMI-8226
[17] = system: IGROV-1
[18] = system: NCI-H226
[19] = system: OVCAR-5
[20] = system: HT-29
[21] = system: K562
[22] = system: SF-539
[23] = system: OVCAR-3
[24] = system: SK-MEL-5
[25] = system: HCC 2998
[26] = system: MDA-MB-435
[27] = system: PC-3
[28] = system: M14
[29] = system: HCT-116
[30] = system: KM12
[31] = system: NCI-H23
[32] = system: ACHN
[33] = system: NCI/ADR-RES
[34] = system: HOP-62
[35] = system: UO-31
[36] = system: T47D
[37] = system: MDA-MB-231
[38] = system: A549
[39] = system: SR
[40] = system: LOX IMVI
[41] = system: HCT-15
[42] = system: UACC-62
[43] = system: OVCAR-4
[44] = system: HOP-92
[45] = system: Hs-578T
[46] = system: OVCAR-8
[47] = system: Malme-3M
[48] = system: MOLT-4
[49] = system: CCRF-CEM
[50] = system: U-251
[51] = system: DU-145
[52] = system: NCI-H522
[53] = system: CAKI-1
[54] = system: BT-549
[55] = system: EKVX
[56] = system: SK-OV-3
[57] = system: UACC-257
[58] = system: SNB-75
[59] = system: NCI-H460

SMILES: O=C1C(Cl)=C(Sc2nnc3c4ccccc4c4ccccc4c3n2)C(=O)c2ccccc21
- GI50 [1]: 21.8 µM (inactive)
- GI50 [2]: 22 µM (inactive)
- GI50 [3]: 16.6 µM (inactive)
- GI50 [4]: 16.6 µM (inactive)
- GI50 [5]: 19.3 µM (inactive)
- GI50 [6]: 2.74 µM (inactive)
- GI50 [7]: 23.1 µM (inactive)
- GI50 [8]: 10.8 µM (inactive)
- GI50 [9]: 27.5 µM (inactive)
- GI50 [10]: 12.6 µM (inactive)
- GI50 [11]: 17.1 µM (inactive)
- GI50 [12]: 16.4 µM (inactive)
- GI50 [13]: 18.7 µM (inactive)
- GI50 [14]: 20.3 µM (inactive)
- GI50 [15]: 1.92 µM (inactive)
- GI50 [16]: 13.7 µM (inactive)
- GI50 [17]: 1.08 µM (active)
- GI50 [18]: 19.3 µM (inactive)
- GI50 [19]: 23.2 µM (inactive)
- GI50 [20]: 25.1 µM (inactive)
- GI50 [21]: 21.1 µM (inactive)
- GI50 [22]: 16.1 µM (inactive)
- GI50 [23]: 14 µM (inactive)
- GI50 [24]: 7.8 µM (inactive)
- GI50 [25]: 32.4 µM (inactive)
- GI50 [26]: 1.85 µM (inactive)
- GI50 [27]: 19 µM (inactive)
- GI50 [28]: 15.2 µM (inactive)
- GI50 [29]: 16 µM (inactive)
- GI50 [30]: 14.8 µM (inactive)
- GI50 [31]: 5 µM (inactive)
- GI50 [32]: 15.7 µM (inactive)
- GI50 [33]: 25.5 µM (inactive)
- GI50 [34]: 16.7 µM (inactive)
- GI50 [35]: 14.1 µM (inactive)
- GI50 [36]: 6.24 µM (inactive)
- GI50 [37]: 3.51 µM (inactive)
- GI50 [38]: 24.6 µM (inactive)
- GI50 [39]: 7.43 µM (inactive)
- GI50 [40]: 4.57 µM (inactive)
- GI50 [41]: 19 µM
- GI50 [42]: 15.8 µM (inactive)
- GI50 [43]: 14.7 µM (inactive)
- GI50 [44]: 16.9 µM (inactive)
- GI50 [45]: 34.3 µM (inactive)
- GI50 [46]: 8.47 µM (inactive)
- GI50 [47]: 3.26 µM (inactive)
- GI50 [48]: 13.9 µM (inactive)
- GI50 [49]: 3.78 µM (inactive)
- GI50 [50]: 13.3 µM (inactive)
- GI50 [51]: 8.81 µM (inactive)
- GI50 [52]: 15.2 µM (inactive)
- GI50 [53]: 17 µM (inactive)
- GI50 [54]: 17.8 µM (inactive)
- GI50 [55]: 17.6 µM (inactive)
- GI50 [56]: 21.6 µM (inactive)
- GI50 [57]: 16.3 µM (inactive)
- GI50 [58]: 2.97 µM (inactive)
- GI50 [59]: 17.8 µM (inactive)

SMILES: NC(=O)C(Nc1ccc(Cl)cc1)c1cc2cc(Br)ccc2nc1Cl (stereo not given)
- GI50 [1]: 48 µM (inactive)
- GI50 [2]: 19.9 µM (inactive)
- GI50 [3]: > 50 µM (inactive)
- GI50 [4]: > 50 µM (inactive)
- GI50 [5]: > 50 µM (inactive)
- GI50 [6]: > 50 µM (inactive)
- GI50 [7]: 34.8 µM (inactive)
- GI50 [8]: > 50 µM (inactive)
- GI50 [9]: > 50 µM (inactive)
- GI50 [10]: 40.8 µM (inactive)
- GI50 [11]: 41.1 µM (inactive)
- GI50 [12]: > 50 µM (inactive)
- GI50 [13]: > 50 µM (inactive)
- GI50 [14]: > 50 µM (inactive)
- GI50 [15]: 43.7 µM (inactive)
- GI50 [16]: 27.8 µM (inactive)
- GI50 [17]: 17.6 µM (inactive)
- GI50 [18]: > 50 µM (inactive)
- GI50 [19]: > 50 µM (inactive)
- GI50 [20]: > 50 µM (inactive)
- GI50 [21]: 20.5 µM (inactive)
- GI50 [22]: 18.5 µM (inactive)
- GI50 [23]: > 50 µM (inactive)
- GI50 [24]: 42.2 µM (inactive)
- GI50 [25]: > 50 µM (inactive)
- GI50 [26]: 32.7 µM (inactive)
- GI50 [27]: > 50 µM (inactive)
- GI50 [28]: > 50 µM (inactive)
- GI50 [29]: > 50 µM (inactive)
- GI50 [30]: > 50 µM (inactive)
- GI50 [31]: > 50 µM (inactive)
- GI50 [32]: > 50 µM (inactive)
- GI50 [33]: > 50 µM (inactive)
- GI50 [34]: > 50 µM (inactive)
- GI50 [35]: > 50 µM (inactive)
- GI50 [36]: 37.2 µM (inactive)
- GI50 [37]: > 50 µM (inactive)
- GI50 [38]: 30.2 µM (inactive)
- GI50 [39]: 18.9 µM (inactive)
- GI50 [40]: > 50 µM (inactive)
- GI50 [41]: > 50 µM
- GI50 [42]: > 50 µM (inactive)
- GI50 [43]: > 50 µM (inactive)
- GI50 [44]: 17.7 µM (inactive)
- GI50 [45]: > 50 µM (inactive)
- GI50 [46]: > 50 µM (inactive)
- GI50 [47]: > 50 µM (inactive)
- GI50 [48]: 19.5 µM (inactive)
- GI50 [49]: 23.8 µM (inactive)
- GI50 [51]: > 50 µM (inactive)
- GI50 [52]: 31.5 µM (inactive)
- GI50 [53]: > 50 µM (inactive)
- GI50 [54]: > 50 µM (inactive)
- GI50 [55]: 18.6 µM (inactive)
- GI50 [56]: > 50 µM (inactive)
- GI50 [57]: > 50 µM (inactive)
- GI50 [58]: > 50 µM (inactive)
- GI50 [59]: > 50 µM (inactive)

SMILES: CCCc1nnc2sc(COc3cc(Cl)c(OCc4nn5c(CCC)nnc5s4)cc3Cl)nn12
- GI50 [1]: 5.66 µM (inactive)
- GI50 [2]: 52 µM (inactive)
- GI50 [3]: 57 µM (inactive)
- GI50 [4]: > 100 µM (inactive)
- GI50 [5]: 50.5 µM (inactive)
- GI50 [6]: 25.6 µM (inactive)
- GI50 [7]: > 100 µM (inactive)
- GI50 [8]: 28.6 µM (inactive)
- GI50 [9]: 21.7 µM (inactive)
- GI50 [10]: 23.6 µM (inactive)
- GI50 [11]: 31.6 µM (inactive)
- GI50 [12]: 35.7 µM (inactive)
- GI50 [13]: 31.5 µM (inactive)
- GI50 [14]: 37.8 µM (inactive)
- GI50 [15]: 37.6 µM (inactive)
- GI50 [16]: 0.0885 µM (active)
- GI50 [17]: 25.2 µM (inactive)
- GI50 [18]: > 100 µM (inactive)
- GI50 [19]: > 100 µM (inactive)
- GI50 [20]: 53 µM (inactive)
- GI50 [21]: 0.596 µM (active)
- GI50 [22]: 47.8 µM (inactive)
- GI50 [23]: 24.8 µM (inactive)
- GI50 [24]: 12.3 µM (inactive)
- GI50 [25]: 77.8 µM (inactive)
- GI50 [26]: 35.3 µM (inactive)
- GI50 [27]: > 100 µM (inactive)
- GI50 [28]: 44.7 µM (inactive)
- GI50 [29]: 46 µM (inactive)
- GI50 [30]: 70.1 µM (inactive)
- GI50 [31]: 0.748 µM (active)
- GI50 [32]: 25.4 µM (inactive)
- GI50 [33]: 5.9 µM (inactive)
- GI50 [34]: 38.4 µM (inactive)
- GI50 [36]: 15.2 µM (inactive)
- GI50 [37]: 47.1 µM (inactive)
- GI50 [38]: 35.2 µM (inactive)
- GI50 [39]: 0.046 µM (active)
- GI50 [40]: 37.1 µM (inactive)
- GI50 [41]: 0.904 µM
- GI50 [42]: 24.2 µM (inactive)
- GI50 [43]: 22.5 µM (inactive)
- GI50 [44]: 22 µM (inactive)
- GI50 [45]: 32 µM (inactive)
- GI50 [46]: 27.4 µM (inactive)
- GI50 [47]: 25.9 µM (inactive)
- GI50 [48]: 0.4 µM (active)
- GI50 [49]: 15.6 µM (inactive)
- GI50 [50]: 37.2 µM (inactive)
- GI50 [51]: 47 µM (inactive)
- GI50 [52]: 27.3 µM (inactive)
- GI50 [53]: 38.5 µM (inactive)
- GI50 [54]: 29.2 µM (inactive)
- GI50 [55]: 22.6 µM (inactive)
- GI50 [56]: 24.5 µM (inactive)
- GI50 [57]: 34.1 µM (inactive)
- GI50 [58]: 21.7 µM (inactive)
- GI50 [59]: 42.8 µM (inactive)
